Measured values taken from patent US20090263410A1, “USE OF TGF-B1 INHIBITOR PEPTIDES IN THE PREPARATION OF AN IMMUNE RESPONSE MODULATING AGENT” (Proyecto De Biomedicina Cima, S.L., priority 2005, published 2009).
“Also recorded” adds a separate entry of the source. Where no end group is shown, it is not given here.

Columns and labels:
[1] = system: regulatory T lymphocytes (CD25+); assay: Inhibition of suppressant action of regulatory T lymphocytes (CD25+) on splenocyte proliferation; format: cell-based, Balb-c mice; settings: for dose dependence of inhibition of regulatory T lymphocyte action: 50 μM and double dilutions
Experimental: 1. OBTAINMENT OF TOTAL SPLENOCYTES: To obtain splenocytes from 6-week old, female Balb-c mice, 4 animals were sacrificed, and after extracting the spleen, they were transferred to a clean medium for their dispersion with crystals, the homogenate was filtered (70-micron filter) and transferred to 50-ml tubes, for their subsequent washing and centrifugation. The cells obtained were incubated for 1 minute in lysis buffer, for the elimination of erythrocytes and they were subsequently washed with clean culture medium. Finally, the cells obtained were resuspended in 1 ml of AUTOMACS medium and they were counted. 2. PURIFICATION OF CD25+ LYMPHOCYTES: the purification of CD25+ lymphocytes was performed by the use of magnetic columns labelling with CD25PE and after incubation, anti-PE magnetic microspheres (Phycoerythrin) were added. After incubation, washing and filtration (30-micron filter) the samples were passed through a magnetic column, obtaining the eluate containing the CD25− population by gravity. Once the column is extracted from the magnetic field it is washed under pressure, obtaining the CD25+ cells. 3. SUPPRESSANT ACTIVITY ASSAY: To verify the regulating nature of the CD25+ population, a total of 100,000 splenocytes was seeded per well on a U-bottomed 96-well plate, in a volume of 200 μl per well and anti-CD3 antibody ([…]) alone or opposing CD25+ or CD25−, placing 25,000 cells per well (CD25+) or 50,000 cells per well (CD25−), performing double dilutions of the concentration of these cells. 4. ASSAY FOR THE INHIBITION OF SUPPRESSANT ACTION BY PEPTIDES: On the U-bottomed 96-well plate, with 200 μl vol/well, 100,000 splenocytes were seeded per well and anti-CD3 antibody (0.5 μl/well) plus 25,000 CD25+ lymphocytes per well. Peptides were added to these mixtures (3 columns/peptide, 50 MicroM in the 1st row and double dilution in the following three rows). 3 peptides were assayed: P17(1-11) SEQ ID NO: 3, P17(1-11)am SEQ ID NO: 4 and AcP17(1-11)am SEQ ID NO: 5. Both this assay and that of the suppressant activity were incubated at 37° C. for 48 h, tritium labelled thymidine was added at 0.5 μCi/well and it is harvested after 8 h, subsequently counting the CPM emitted by the cells from each well. 5. VERIFICATION OF THE EFFECTIVE SEPARATION OF THE Treg: Labelling with fluorescent anti-CD4 and anti-CD25 antibodies and analysis by flow cytometry (89% of the population magnetically separated is DC4+CD25+).

CT26 cells = assay: Tumour growth of subcutaneous CT26 in AH1-immunized mice treated with peptides; format: in vivo, balb-c mice; settings: 50 μg/mouse/48 h i.p. between days 6 and 10, s.c. CT26 on day 0, AH1 immunization 10 days before
Experimental: GROUPS: 4 groups of 7 female balb-c mice, of 6 weeks old/group.
AH1+FIA s.c.+p144 (50 μg i.p./dose/mouse) AH1+FIA s.c.+p17(1-11) (50 μg i.p./dose/mouse) DESIGN: AH1+FIA: […]; Peptides: from day −6 on alternate days until day 10: Tumour model volume: Each 3 days from day 10 to day 41. Challenge on day 0 with CT26 (500000 cells/mouse s.c. in the flank).
REDUCTION IN THE MEAN TUMOUR VOLUME BY GROUPS TREATED WITH PEPTIDES: The effect of peptides p144 and p17(1-11)Am was studied in a tumour progression model. In this model, mice were immunized with 50 μg of AH1 10 days before the administration of 5×10^5 CT26 cells. In order to verify the effect of blocking the TGF-β1 on the protection against CT tumour cells, another two groups of mice were treated on alternate days by intraperitoneal route between days 6 and 10 (50 μg/mouse/48 h) with peptides p144 and p17(1-11)Am. […] This protection reached 100% of the animals in the case of p144 (FIG. 16).

[2] = system: MC38, LLC, CT26 and RENCA tumour lines; assay: NK cell cytotoxicity, 51Cr release assay; format: cell-based, mouse; settings: effector cells with/without p17 for 6 days; 4.5 h 51Cr release
Experimental: They were performed from spleen cells from RAG^−/− mice, without T and B lymphocytes. In some cases, the total splenocytes was cultured on 6-well plates at 4×10^6 cells per ml of RPMI medium enriched with 10% SBF, L-glutamine, antibiotics, non-essential amino acids, β-mercaptoethanol and human recombinant interleukin-2 (Chiron) at 600 IU/ml. In half the wells, peptide p17 was added at a concentration of 150 μg/ml. After 48 hours, the medium was removed and the wells were washed with RPMI medium to discard the non-adherent cells. Next, fresh medium was added with/without peptide. On day +5, the medium was again changed, this time replacing all the cells and peptide p17 in the corresponding cultures. The cells counts with trypan blue were performed on days +5 and +6 of this culture. In other cases, NK cells from mouse splenocytes were purified by an immunomagnetic selection using the MiniMACS system, anti-DX5 beads and MS columns (Miltenyi Biotech) according to the manufacturer's instructions. […]
The cytotoxicity of NK cells was verified by standard 4.5 h ^51Cr release assays. […] Finally, the release of ^51Cr due to lysis by NK cells was measured after 4.5 h in a TopCount Scintillation counter (Perkin Elmer). The cytotoxicity was measured as a percentage of Cr released with respect to the total acquired by the cells. […]

Substance | dose dependence of inhibition of regulatory T lymphocyte action [1] | inhibition of the suppressant effect of regulatory T lymphocytes ([1]; peptide 50 μM) | inhibition of the suppressant effect of regulatory T lymphocytes ([1]; peptide 50 μM, listed as P17(1-1)am) | tumour growth (CT26 cells) | tumour growth (CT26 cells; listed as p17(1-11)Am) | inhibition of the suppressant effect of regulatory T lymphocytes ([1]; peptide 25 μM) | cytotoxic activity of NK cells against tumour lines [2]
p17(1-11)am: amino acids 1 to 11 of peptide p17, position 11 (tryptophan) amidated, SEQ ID NO: 4 (KRIWFIPRSSW-NH2) | dose-dependent | 128% | totally inhibiting | delay tumour growth | protection against tumour growth |  | 
Acp17(1-11)am: p17(1-11)am which further has position 1 (lysine) acetylated, SEQ ID NO: 5 (Ac-KRIWFIPRSSW-NH2) | dose-dependent | totally inhibiting |  |  |  | 148% | 
p17(1-11): fragment of peptide p17, amino acids 1 to 11, SEQ ID NO: 3 (KRIWFIPRSSW) |  | 20% |  |  |  |  | 
KRIWFIPRSSWYERA [p17] |  |  |  |  |  |  | improves the cytotoxic activity; also recorded: increases the cytotoxicity
